Values quoted from earlier work in patent US5298499A, “S-2-(substituted ethylamino)ethyl phosphorothioates” (Research Triangle Institute, priority 1991, dated 1994).
Read-outs that look alike come from different tables or passages of the source.

How the values were obtained:
[1] = background statement

Compound	radioprotective activity (literature)	uptake in malignant and healthy tissue [1]	radioprotective activity (in vivo)
NCCCNCCS [Compound 2]	known to be a radioprotective agent		
NC(=O)CCNCCS [Compound 3, 2-(2.varies.-carbamidoethylamino)ethanethiol]	good radioprotective activity, comparable to that of compound 2		
NCCCNCCSP(=O)(O)O [WR2721, S-2-[3-aminopropylamino]ethylphosphorothioicacid]		comparable uptake	most effective agent
